Values after ≈ are worked out from the molar mass of the structure shown. Like-named read-outs stand apart in the source and are kept apart here.
Key:
Type in all cases: cell-based
[1] = test system: Staphylococcus aureus FDA 209P; assay: Minimum inhibitory concentration, serial dilution method on nutrient agar; settings: FDA209P, 37° C., 18 hours, read-out: Minimum Inhibitory Concentrations
[2] = test system: Pseudomonas aeruginosa TI-13; assay: as above; settings: read-out: Minimum Inhibitory Concentrations
[3] = test system: Sarcina lutea PCI 1001; assay: as above; settings: Micrococcus luteus, read-out: Minimum Inhibitory Concentrations
[4] = test system: Mycobacterium smegmatis ATCC 607; assay: as above; settings: Mycolicibacterium smegmatis, ATCC607, 37° C., 18 hours, read-out: Minimum Inhibitory Concentrations
[5] = test system: Pseudomonas aeruginosa 99; assay: as above; settings: 37° C., 18 hours, read-out: Minimum Inhibitory Concentrations
[6] = test system: Escherichia coli K-12 ML 1410 R81; assay: as above; settings: 18 h, read-out: Minimum Inhibitory Concentrations
[7] = test system: Escherichia coli LA290 R64; assay: as above; settings: LA290R64, 18 h, read-out: Minimum Inhibitory Concentrations
[8] = test system: Bacillus anthracis; assay: microbe, parasite or virus in culture; settings: 18 h, read-out: Minimum Inhibitory Concentrations
[9] = test system: Pseudomonas aeruginosa No. 12; assay: Minimum inhibitory concentration, serial dilution method on nutrient agar; settings: Pseudomonas aeruginosa No. 12; 37° C., 18 hours; read-out: Minimum Inhibitory Concentrations
[10] = test system: Escherichia coli K-12; assay: as above; settings: K12; Escherichia coli K-12; 37° C., 18 hours; read-out: Minimum Inhibitory Concentrations
[11] = test system: Escherichia coli NIHJ; assay: as above; settings: read-out: Minimum Inhibitory Concentrations
[12] = test system: Escherichia coli K-12 ML 1410; assay: as above; settings: read-out: Minimum Inhibitory Concentrations
[13] = test system: Escherichia coli W677; assay: as above; settings: Escherichia coli W677; 37° C., 18 hours; read-out: Minimum Inhibitory Concentrations
[14] = test system: Shigella dysenteriae JS 11910; assay: as above; settings: JS11910, 18 h, read-out: Minimum Inhibitory Concentrations
[15] = test system: Bacillus subtilis PCI 219; assay: as above; settings: PCI219, 37° C., 18 hours, read-out: Minimum Inhibitory Concentrations
[16] = test system: Escherichia coli JR66/W677; assay: as above; settings: read-out: Minimum Inhibitory Concentrations
[17] = test system: Staphylococcus aureus; assay: as above; settings: 37° C., 18 hours, read-out: Minimum Inhibitory Concentrations
[18] = test system: Escherichia coli LA290 R55; assay: as above; settings: LA290R55, 18 h, read-out: Minimum Inhibitory Concentrations
[19] = test system: Pseudomonas aeruginosa GN315; assay: as above; settings: Pseudomonas aeruginosa GN315; 37° C., 18 hours; read-out: Minimum Inhibitory Concentrations
[20] = test system: Salmonella typhosa T-63; assay: as above; settings: Salmonella enterica, 18 h, read-out: Minimum Inhibitory Concentrations
[21] = test system: Bacillus cereus ATCC 10702; assay: as above; settings: read-out: Minimum Inhibitory Concentrations
[22] = test system: Klebsiella pneumoniae PCT 602; assay: as above; settings: PCT602; Klebsiella pneumoniae PCT 602; 37° C., 18 hours; read-out: Minimum Inhibitory Concentrations
[23] = test system: Proteus vulgaris OX 19; assay: as above; settings: OX19; Proteus vulgaris OX 19; 37° C., 18 hours; read-out: Minimum Inhibitory Concentrations
[24] = test system: Escherichia coli LA290 R56; assay: as above; settings: LA290R56, 18 h, read-out: Minimum Inhibitory Concentrations
[25] = test system: Staphylococcus aureus Terajima; assay: as above; settings: 37° C., 18 hours, read-out: Minimum Inhibitory Concentrations
[26] = test system: Pseudomonas aeruginosa A3; assay: as above; settings: 37° C., 18 hours, read-out: Minimum Inhibitory Concentrations
Method: (§1) The minimum inhibitory concentrations (mcg./ml.) of 1N-(DL-isoseryl)-6'N-methyl-3',4'-dideoxykanamycin B (abbreviated as DL-IS-MDKB); 1N-(L-isoseryl)-6'N-methyl-3',4'-dideoxykanamycin B (abbreviated as L-IS-MDKB); 1N-(L-4-amino-[…])-6'N-methyl-3',4'-dideoxykanamycin B (abbreviated as AHB-MDKB); and 1N-(L-5-amino-2-hydroxyvaleryl)-6'N-methyl-3',4'-dideoxykanamycin B (abbreviated as AHV-MDBK) against various organisms were determined according to serial dilution method using nutrient agar medium at 37° C., the readings being made after 18 hours incubation. For the comparison purpose, the minimum inhibitory concentrations (mcg./ml.) of 1 N-(L-4-amino-2-hydroxybutyryl)-kanamycin A (abbreviated as AHB-KMA) and 1N-([…])-kanamycin B (abbreviated as AHB-KMB) which are known from U.S. Pat. No. 3,781,268 were also determined by the same manner as stated above.

[27] = test system: Klebsiella pneumoniae 22 No. 3038; assay: as above; settings: 37° C., 18 hours, read-out: Minimum Inhibitory Concentrations
Method: as §1

[28] = test system: Escherichia coli K-12 ML 1630; assay: as above; settings: K12ML1630, 37° C., 18 hours, read-out: Minimum Inhibitory Concentrations
Method: as §1

[29] = test system: Shigella sonnei JS 11746; assay: as above; settings: JS11746, 37° C., 18 hours, read-out: Minimum Inhibitory Concentrations
Method: as §1

[30] = test system: Shigella flexneri 4b JS 11811; assay: as above; settings: 4BJS11811, 37° C., 18 hours, read-out: Minimum Inhibitory Concentrations
Method: as §1

[31] = test system: Escherichia coli K-12 R5; assay: as above; settings: K12R5, 18 h, read-out: Minimum Inhibitory Concentrations
[32] = test system: Bacillus subtilis NRRL B-558; assay: as above; settings: NRRLB558, 37° C., 18 hours, read-out: Minimum Inhibitory Concentrations
[33] = test system: Escherichia coli K-12 ML 1629; assay: as above; settings: read-out: Minimum Inhibitory Concentrations
[34] = test system: Salmonella enteritidis 1891; assay: as above; settings: Salmonella enterica; Salmonella enteritidis 1891; 37° C., 18 hours; read-out: Minimum Inhibitory Concentrations
[35] = test system: Corynebacterium bovis 1810; assay: as above; settings: Corynebacterium bovis 1810; 37° C., 18 hours; read-out: Minimum Inhibitory Concentrations

Row | Compound | MIC [1] [µg/mL] | MIC [4] [µg/mL] | MIC [5] [µg/mL] | MIC [6] [µg/mL] | MIC [7] [µg/mL] | MIC [8] [µg/mL] | MIC [9] [µg/mL] | MIC [10] [µg/mL] | MIC [13] [µg/mL] | MIC [14] [µg/mL] | MIC [15] [µg/mL] | MIC [17] [µg/mL] | MIC [18] [µg/mL] | MIC [19] [µg/mL] | MIC [20] [µg/mL] | MIC [22] [µg/mL] | MIC [23] [µg/mL] | MIC [24] [µg/mL] | MIC [25] [µg/mL] | MIC [26] [µg/mL] | other results
1 | CNC[C@@H]1CC[C@@H](N)[C@@H](O[C@H]2[C@H](O)[C@@H](O[C@H]3O[C@H](CO)[C@@H](O)[C@H](N)[C@H]3O)[C@H](NC(=O)[C@@H](O)CCCN)C[C@@H]2N)O1 [AHV-MDKB, 1N-(L-5-amino-2-hydroxyvaleryl)-6'N-methyl-3',4'-dideoxykanamycin B] | 0.39 (≈ 0.672 µM) | 0.78 (≈ 1.34 µM) | 25 (≈ 43.1 µM) | 1.56 (≈ 2.69 µM) | 0.39 (≈ 0.672 µM) | < 0.2 | 25 (≈ 43.1 µM) | 0.78 (≈ 1.34 µM) | 0.78 (≈ 1.34 µM) | 3.13 (≈ 5.39 µM) | < 0.2 | < 0.2 | 0.78 (≈ 1.34 µM) | 12.5 (≈ 21.5 µM) | 0.78 (≈ 1.34 µM) | 0.78 (≈ 1.34 µM) | 0.78 (≈ 1.34 µM) | 0.39 (≈ 0.672 µM) | < 0.2 | 3.13 (≈ 5.39 µM) | MIC ([2]; TI13, Pseudomonas aeruginosa TI-13, 37° C., 18 hours): 6.25 µg/mL (≈ 10.8 µM); MIC ([3]; PCI1001, Sarcina lutea PCI 1001, 37° C., 18 hours): 12.5 µg/mL (≈ 21.5 µM); MIC ([11]; Escherichia coli NIHJ, 37° C., 18 hours): 0.78 µg/mL (≈ 1.34 µM); MIC ([12]; K12ML1410, Escherichia coli K-12 ML 1410, 37° C., 18 hours): 1.56 µg/mL (≈ 2.69 µM); MIC ([16]; Escherichia coli JR66/W677, 37° C., 18 hours): 1.56 µg/mL (≈ 2.69 µM); MIC ([21]; ATCC10702, Bacillus cereus ATCC 10702, 37° C., 18 hours): 1.56 µg/mL (≈ 2.69 µM); MIC [27]: 3.13 µg/mL (≈ 5.39 µM); MIC [28]: 1.56 µg/mL (≈ 2.69 µM); MIC [29]: 3.13 µg/mL (≈ 5.39 µM); MIC [30]: 3.13 µg/mL (≈ 5.39 µM); MIC [31]: 1.56 µg/mL (≈ 2.69 µM); MIC [32]: < 0.2 µg/mL; MIC ([33]; K12ML1629, Escherichia coli K-12 ML 1629, 37° C., 18 hours): 0.78 µg/mL (≈ 1.34 µM); MIC [34]: 0.78 µg/mL (≈ 1.34 µM); MIC [35]: 6.25 µg/mL (≈ 10.8 µM)
2 | CNC[C@@H]1CC[C@@H](N)[C@@H](O[C@H]2[C@H](O)[C@@H](O[C@H]3O[C@H](CO)[C@@H](O)[C@H](N)[C@H]3O)[C@H](NC(=O)[C@@H](O)CN)C[C@@H]2N)O1 [L-IS-MDKB, 1N-(L-isoseryl)-6'N-methyl-3',4'-dideoxykanamycin B] | < 0.2 | 0.39 (≈ 0.706 µM) | 25 (≈ 45.2 µM) | 1.56 (≈ 2.82 µM) | 0.39 (≈ 0.706 µM) | < 0.2 | 25 (≈ 45.2 µM) | 0.78 (≈ 1.41 µM) | 0.78 (≈ 1.41 µM) | 3.13 (≈ 5.66 µM) | < 0.2 | < 0.2 | 1.56 (≈ 2.82 µM) | 25 (≈ 45.2 µM) | 0.39 (≈ 0.706 µM) | 0.78 (≈ 1.41 µM) | 0.78 (≈ 1.41 µM) | 0.78 (≈ 1.41 µM) | < 0.2 | 3.13 (≈ 5.66 µM) | MIC ([2]; Pseudomonas aeruginosa, TI13, 18 h): 6.25 µg/mL (≈ 11.3 µM); MIC ([3]; PCI1001, 18 h): 3.13 µg/mL (≈ 5.66 µM); MIC ([11]; Escherichia coli, 18 h): 1.56 µg/mL (≈ 2.82 µM); MIC ([12]; Escherichia coli, K12ML1410, 18 h): 1.56 µg/mL (≈ 2.82 µM); MIC ([16]; Escherichia coli, JR66/W677, 18 h): 1.56 µg/mL (≈ 2.82 µM); MIC ([21]; Bacillus cereus, ATCC10702, 18 h): 1.56 µg/mL (≈ 2.82 µM); MIC [27]: 1.56 µg/mL (≈ 2.82 µM); MIC [28]: 1.56 µg/mL (≈ 2.82 µM); MIC [29]: 3.13 µg/mL (≈ 5.66 µM); MIC [30]: 1.56 µg/mL (≈ 2.82 µM); MIC [31]: 1.56 µg/mL (≈ 2.82 µM); MIC [32]: < 0.2 µg/mL; MIC ([33]; Escherichia coli, K12ML1629, 18 h): 1.56 µg/mL (≈ 2.82 µM); MIC [34]: 0.78 µg/mL (≈ 1.41 µM); MIC [35]: 0.78 µg/mL (≈ 1.41 µM)

— US4147861A, “1N-(α-Hydroxy-ω-aminoalkanoyl)- 6'N-methyl-3',4'-dideoxykanamycin B and the production thereof” (Zaidan Hojin Biseibutsu Kagaku Kenkyu Kai, priority 1977, dated 1979)
